Experimental data: US11903981B2, “Use of Anaerofustis stercorihominis in preventing and/or treating metabolic diseases” (priority 2018, dated 2024)
Marks after values point to notes of the source that are not given here.

Experiments:
Type in all cases: in vivo
[1] = system: obesity mice model (C57BL/6 male mice, high-fat feed); experiment: Obesity animal model (high-fat feed), body weight; conditions: bacterial solution 1×10^8 cfu/ml by gavage; for Weight of mice, Week 9: Week 9, *P<0.05 relative to model group
Method: The obesity animal model is constructed by using C57BL/6 male mice (purchased from Guangdong Medical Experimental Animal Center) at 8 weeks old and 20±2 g of body weight, which is housed in a specific pathogen free (SPF) environment and access to food and water ad lib. The mice are randomly divided into 5 groups, with 10 mice in each group.
Bacterial agent group 1: mice were fed with high-fat feed every day, in which the AM25-6 bacterial solution (1×10^8 cfu/ml) was administered by gavage for 9 weeks after 4 weeks of feeding high-fat feed;
Bacterial agent group 2: mice were fed with high-fat feed every day, in which the DSM 17244 bacterial solution (1×10^8 cfu/ml) was administered by gavage for 9 weeks after 4 weeks of feeding high-fat feed;
Bacterial agent group 3: mice were fed with high-fat feed every day, in which the DSM 28733 bacterial solution (1×10^8 cfu/ml) was administered by gavage for 9 weeks after 4 weeks of feeding high-fat feed;
Obesity model group: mice were fed with high-fat feed every day, in which the culture medium in a same amount was administered by gavage for 9 weeks after 4 weeks of feeding high-fat feed.
During the experimental period, experimental data such as the body weight, body condition and food intake amount of mice were recorded every week. After the completion of experiment, the mice were sacrificed, and the fat weight was recorded and the serum was collected for detecting blood lipids by using the Elisa kit.

[2] = system: T2D mice model (C57bL/6 mice); experiment: T2D animal model (STZ plus high-fat feed), body weight; conditions: gavage
Method: (§1) The T2D animal model is constructed by using C57bL/6 mice (purchased from Guangdong Medical Experimental Animal Center) at 8 weeks old and 20±2 g of body weight. The mice were housed in a specific pathogen free (SPF) environment and adaptively fed for 1 week, followed by grouping and modeling. The T2D animal model is induced by injection of streptozotocin (STZ) along with feeding high-fat feed, and the mice having fasting blood glucose (FBG) reaching to 10 mM/L can be used as a T2D mice model. Fifty mice selected for experiments are randomly divided into 5 groups.
(§2) Bacterial agent group 1: the T2D mice model was administered with the AM25-6 bacterial solution (1×10^8 cfu/ml) by gavage;
(§3) Bacterial agent group 2: the T2D mice model was administered with the DSM 17244 bacterial solution (1×10^8 cfu/ml) by gavage;
(§4) Bacterial agent group 3: the T2D mice model was administered with the DSM 28733 bacterial solution (1×10^8 cfu/ml) by gavage;
(§5) Metformin treatment group: the T2D mice model was treated with the positive drug metformin.
(§6) The experiment was carried out based on the different groups. After the construction of T2D mice model (i.e., FBG>10), the treatment was started and lasted for 2 months. The food intake amount and body weight of mice were recorded daily. Blood of mice was collected from the tail vein every week for detection of fasting blood glucose. The oral glucose tolerance test (OGTT) of mice was measured at week 4 of treatment and at the end of the experiment.

[3] = system: T2D mice model (C57bL/6 mice); experiment: T2D animal model, fasting blood glucose
Method: as §1, §2, §3, §4, §5, §6

[4] = system: T2D mice model (C57bL/6 mice); experiment: T2D animal model, oral glucose tolerance test (OGTT); conditions: for Blood glucose in OGTT, 0 minute: 0 minute after glucose by gavage; for Blood glucose in OGTT, 30 minutes: 30 minutes after glucose by gavage; for Blood glucose in OGTT, 60 minutes: 60 minutes after glucose by gavage; for Blood glucose in OGTT, 90 minutes: 90 minutes after glucose by gavage; for Blood glucose in OGTT, 120 minutes: 120 minutes after glucose by gavage
Method: as §1, §6
The results of oral glucose tolerance test (OGTT) for mice shown in Table 8 indicate that the blood glucose of mice reaches the highest level (i.e., 17.8-23.1 mmol/L) at 30 minutes upon administration of glucose by gavage. […] From the perspective of overall glucose tolerance process, it can be seen that Anaerofustis stercorihominis can effectively ameliorate glucose intolerance in diabetic mice.

[5] = system: C57bL/6 mice fed with high-fat feed; experiment: Hyperlipidemia animal model (high-fat feed), blood lipids and blood viscosity; conditions: for blood viscosity: carotid artery blood, hemorheological examination; for HDLC (high-density lipoprotein) / LDLC (low-density lipoprotein) / TC (total cholesterol) / TG (triglyceride): serum, bacterial solution 2 ml 1×10^9 cfu/ml daily or tablets 0.6 g/kg
Method: Sixty C57bL/6 mice (purchased from Guangdong Medical Experimental Animal Center) at 6 weeks old were used in this experiment, which were normally fed in a Specific pathogen Free (SPF) environment. The mice were adaptively fed for 1 week and then randomly divided into 6 groups, with 10 mice in each group. The animal model is constructed along with intervention.
Bacterial agent group 1: the mice were fed with high-fat feed and 2 ml of AM25-6 bacterial solution (1×10^9 cfu/ml) daily;
Bacterial agent group 2: the mice were fed with high-fat feed and 2 ml of DSM 17244 bacterial solution (1×10^9 cfu/ml) daily;
Bacterial agent group 3: the mice were fed with high-fat feed and 2 ml of DSM 28733 bacterial solution (1×10^9 cfu/ml) daily;
Tongmai Jiangzhi tablet group (a positive drug for the treatment of hyperlipidemia): the mice were fed with high-fat feed and 0.6 g/kg Tongmai Jiangzhi tablets;
Experimental data such as the body condition, food intake amount and the like of mice was recorded every week before and after the intervention of the model. After the completion of experiment, the mice were sacrificed, and the fat content was recorded, the serum was collected for detection of blood lipid contents (including total cholesterol (TC), triglyceride (TG), high-density lipoprotein (HDLC) and low-density lipoprotein (LDLC)) in the serum according to the instruction of kit. Blood from the last carotid artery was taken for hemorheological examination.

[6] = system: SD rats, myocardial ischemia induced by pituitrin; experiment: Experimental myocardial ischemia in rats induced by pituitrin, ST-segment displacement; conditions: gavage daily for 10 days, pituitrin 1 unit/kg iv., **P<0.01, *P<0.05 relative to model group
Method: Fifty SD rats (purchased from Guangdong Medical Experimental Animal Center, half male and half female) at 180-220 g of body weight and 6 weeks old were used in this experiment, which were normally fed in a Specific pathogen Free (SPF) environment. The rats were adaptively fed for 1 week and then randomly divided into 5 groups, with 10 rats in each group.
Model group: the rats were fed with 2.5 ml/kg PBS by gavage daily for 10 consecutive days; Bacterial agent group 1: the rats were fed with 2.5 ml/kg AM25-6 bacterial solution (1×10^9 cfu/ml) by gavage daily for 10 consecutive days;
Bacterial agent group 2: the rats were fed with 2.5 ml/kg DSM 17244 bacterial solution (1×10^9 cfu/ml) by gavage daily for 10 consecutive days;
Bacterial agent group 3: the rats were fed with 2.5 ml/kg DSM 28733 bacterial solution (1×10^9 cfu/ml) by gavage daily for 10 consecutive days;
FuFangDanShen tablet group: the rats were fed with 2 g/kg FuFangDanShen tablet (SFDA approval number Z21020381, Tianjin Tasly (Liaoning) Pharmaceutical Co., Ltd.) by gavage daily for 10 consecutive days.
For each group, the standard lead I electrocardiogram was recorded post 1 hour of last administration, followed by sublingual intravenous injection (iv.) with pituitrin (SFDA approval number H31022259, specifications: 2 ml: 6 units, from Shanghai First Biochemical & Pharmaceutical Industry Co., Ltd.) in 1 unit/kg (in a volume of 1 ml/kg) within 15 seconds, after which the change of electrocardiogram was recorded post 5 seconds, 15 seconds, 30 seconds, 1 minute, 2 minutes, 3 minutes and 5 minutes, and the change of ST segment displacement before and after administration of pituitrin was measured and compared, with statistical analysis by using t test between groups.

[7] = Week 9, *P<0.05 relative to model group

Substance	Weight of mice, Week 1 [1] [g]	Weight of mice, Week 3 [1] [g]	Weight of mice, Week 5 [1] [g]	Weight of mice, Week 7 [1] [g]	Weight of mice, Week 9 [1]	Body weight ([2]; Week 1) [g]	Body weight ([2]; Week 3) [g]	Body weight ([2]; Week 5) [g]	Body weight ([2]; Week 7) [g]	Body weight [2, 7]	Fasting blood glucose, Week 1 [3] [mmol/L]	Fasting blood glucose, Week 3 [3] [mmol/L]	Fasting blood glucose, Week 5 [3]	Fasting blood glucose, Week 7 [3]	Fasting blood glucose, Week 9 [3]	Blood glucose in OGTT, 0 minute [4] [mmol/L]	Blood glucose in OGTT, 30 minutes [4] [mmol/L]	Blood glucose in OGTT, 60 minutes [4] [mmol/L]	Blood glucose in OGTT, 90 minutes [4]	Blood glucose in OGTT, 120 minutes [4] [mmol/L]	further results
Anaerofustis stercorihominis AM25-6 [Bacterial agent group 1]	21.13	22.59	23.98	24.13	25.47* g	22.34	23.57	24.26	25.53	25.97* g	16.1	15.6	13.2* mmol/L	10.4** mmol/L	8.6** mmol/L	9.1	17.8	15.9	11.5* mmol/L	10.1	blood viscosity [5]: 1.26*; HDLC (high-density lipoprotein) [5]: 3.219 mmol/L; LDLC (low-density lipoprotein) [5]: 1.454* mmol/L; TC (total cholesterol) [5]: 4.014* mmol/L; TG (triglyceride) [5]: 0.893* mmol/L; ST-segment displacement (±S) [6]: 0.017 ± 0.011** mv
Anaerofustis stercorihominis DSM 17244 [Bacterial agent group 2]	20.15	21.78	22.99	23.88	25.62* g	21.55	22.43	23.78	25.13	25.58* g	15.8	15.7	14.6 mmol/L	11.7* mmol/L	9.0** mmol/L	9.7	18.0	14.9	12.1* mmol/L	9.9	blood viscosity [5]: 1.29*; HDLC (high-density lipoprotein) [5]: 3.219 mmol/L; LDLC (low-density lipoprotein) [5]: 1.585* mmol/L; TC (total cholesterol) [5]: 4.021* mmol/L; TG (triglyceride) [5]: 0.933* mmol/L; ST-segment displacement (±S) [6]: 0.018 ± 0.012** mv
Anaerofustis stercorihominis DSM 28733 [Bacterial agent group 3]	21.19	22.44	23.78	24.19	25.67* g	21.76	23.36	24.57	25.14	25.45* g	16.7	15.5	13.6* mmol/L	10.4** mmol/L	7.8** mmol/L	9.6	18.2	15.6	11.7* mmol/L	10.2	blood viscosity [5]: 1.25*; HDLC (high-density lipoprotein) [5]: 3.311 mmol/L; LDLC (low-density lipoprotein) [5]: 1.423* mmol/L; TC (total cholesterol) [5]: 4.017* mmol/L; TG (triglyceride) [5]: 0.912* mmol/L; ST-segment displacement (±S) [6]: 0.020 ± 0.012** mv
